Results as given in ChEMBL document CHEMBL4765314, “Rational design and biological evaluation of gemfibrozil modified Xenopus GLP-1 derivatives as long-acting hypoglycemic agents” (Eur J Med Chem, 2020).
Calls of active or inactive are those of the source. The calls are words filed in the database; no cut-off is given here. Starred links: 1 amine or outer side, 2 acyl side, 3 side chain; linkers in the order of their positions; H or OH if unused. Positions of bridges follow the written chain, without caps; N, C: chain ends. Non-standard residues stand in square brackets, D forms with d. Residues, ends and D or L forms follow the SMILES beside them. Groups on a side chain read outwards from the residue. Chains are numbered I, II in the order given. ξ: configuration not given here. *: point of attachment. X3 = Cc1ccc(C)c(OCCCC(C)(C)C(=O)OCC(=O)NCCCCCC(=O)N[C@@H](CCC(=O)NCCCC[C@H](NO[*:1])C(=O)[*:2])C(=O)O)c1; X1 = Cc1ccc(C)c(OCCCC(C)(C)C(=O)OCC(=O)NCCCCCCCCCC(NC(=O)COC(=O)C(C)(C)CCCOc2cc(C)ccc2C)C(=O)*)c1; X5 = CC(=O)[C@H](CCCCNC(=O)CC[C@H](NC(=O)CCCCCCCCCCNC(=O)COC(=O)C(C)(C)CCCOc1cc(C)ccc1C)C(=O)O)N*; X4 = CC(=O)[C@H](CCCCNC(=O)CC[C@H](NC(=O)COC(=O)C(C)(C)CCCOc1cc(C)ccc1C)C(=O)O)N*; Glycoloyl(O-gemfibrozoyl) = Cc1ccc(C)c(OCCCC(C)(C)C(=O)OCC(=O)*)c1; γGlu = O=C(O)[C@H](CCC(=O)[*:2])N[*:1]; Thr(3ξ) = CC(O)[C@H](N)C(=O)O; Aun = NCCCCCCCCCCC(=O)O; ξK = NCCCCC(N)C(=O)O; Ahx = NCCCCCC(=O)O

Legend:
[1] = Stability in Sprague-Dawley rat plasma at 1000 ng/ml measured up to 48 hrs under shaking condition by LC-MS/MS analysis; assay type: ADME, cell-free
[2] = Stability in Sprague-Dawley rat plasma assessed as half life at 1000 ng/ml measured up to 48 hrs under shaking condition by LC-MS/MS analysis; assay type: ADME, cell-free
Mus musculus = test: Hypoglycemic activity in 12 hrs fasted ICR mouse assessed as reduction in blood glucose level at 25 nmol/kg, ip dosed 30 mins before glucose challenge measured up to 120 mins by OGTT method; assay type: functional, organism-based; conditions: time 150.0 min
[3] = molecular target: Glucagon-like peptide 1 receptor (Homo sapiens, UniProt P43220); test: Agonist activity at human GLP-1R expressed in HEK293 cells assessed as stimulation of cAMP accumulation incubated for 60 mins by HTRF assay; assay type: functional, cell-based
Sequence of Glucagon-like peptide 1 receptor (P43220 whole entry): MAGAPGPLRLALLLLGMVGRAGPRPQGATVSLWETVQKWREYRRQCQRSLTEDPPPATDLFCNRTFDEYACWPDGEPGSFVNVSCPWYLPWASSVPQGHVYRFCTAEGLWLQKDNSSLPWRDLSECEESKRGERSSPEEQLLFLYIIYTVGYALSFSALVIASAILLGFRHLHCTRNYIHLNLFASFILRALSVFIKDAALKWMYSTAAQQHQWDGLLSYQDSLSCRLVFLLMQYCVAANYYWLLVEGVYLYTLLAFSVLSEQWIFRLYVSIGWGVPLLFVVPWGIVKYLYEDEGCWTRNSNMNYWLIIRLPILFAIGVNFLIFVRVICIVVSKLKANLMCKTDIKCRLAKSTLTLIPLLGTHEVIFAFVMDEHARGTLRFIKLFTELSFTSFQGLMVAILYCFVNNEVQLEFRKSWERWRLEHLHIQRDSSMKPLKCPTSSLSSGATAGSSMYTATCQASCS

Albumin = Albumin (Homo sapiens, UniProt P02768); test: Binding affinity to human serum albumin assessed as retention factor by HPAC method; assay type: ADME
Sequence of Albumin (P02768 whole entry): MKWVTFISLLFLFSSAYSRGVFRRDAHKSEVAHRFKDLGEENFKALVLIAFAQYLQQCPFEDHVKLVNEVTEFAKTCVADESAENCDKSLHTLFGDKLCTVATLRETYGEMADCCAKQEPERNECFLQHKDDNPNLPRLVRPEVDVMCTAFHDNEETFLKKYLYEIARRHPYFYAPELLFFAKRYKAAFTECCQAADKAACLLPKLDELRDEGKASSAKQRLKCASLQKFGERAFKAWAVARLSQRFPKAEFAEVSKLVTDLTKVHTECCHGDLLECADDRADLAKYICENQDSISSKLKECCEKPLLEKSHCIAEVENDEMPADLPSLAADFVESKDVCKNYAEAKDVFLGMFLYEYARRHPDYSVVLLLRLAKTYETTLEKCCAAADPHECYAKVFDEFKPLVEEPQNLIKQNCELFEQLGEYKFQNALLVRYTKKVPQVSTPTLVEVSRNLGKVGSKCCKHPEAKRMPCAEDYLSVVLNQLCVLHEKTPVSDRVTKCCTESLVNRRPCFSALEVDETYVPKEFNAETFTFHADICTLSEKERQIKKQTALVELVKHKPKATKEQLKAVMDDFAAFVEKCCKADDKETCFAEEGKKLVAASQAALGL

Molecule	Stabilty [1]	half-life at 1000 ng/ml [2]	EC50 [3]	K (Albumin)	Activity (Mus musculus)
CC[C@H](C)[C@H](NC(=O)[C@H](CC(C)C)NC(=O)[C@H](Cc1c[nH]c2ccccc12)NC(=O)[C@H](CCC(=O)O)NC(=O)[C@@H](NC(=O)[C@H](Cc1ccccc1)NC(=O)[C@H](CCC(=O)O)NC(=O)[C@H](CCCCN)NC(=O)[C@H](C)NC(=O)[C@H](C)NC(=O)[C@H](CCC(=O)O)NC(=O)[C@H](CCC(=O)O)NC(=O)[C@H](CCC(=O)O)NC(=O)[C@H](CC(C)C)NC(=O)[C@H](Cc1ccc(O)cc1)NC(=O)[C@H](CCC(=O)O)NC(=O)[C@@H](NC(=O)[C@@H](NC(=O)[C@H](CC(=O)O)NC(=O)[C@H](CC(N)=O)NC(=O)[C@@H](NC(=O)[C@H](Cc1ccc(O)cc1)NC(=O)[C@@H](NC(=O)CNC(=O)[C@H](CCC(=O)O)NC(=O)CNC(=O)[C@@H](N)Cc1cnc[nH]1)[C@@H](C)O)[C@@H](C)O)C(C)C)[C@@H](C)O)[C@@H](C)CC)C(=O)N[C@@H](CCCCN)C(=O)NCC(=O)N[C@@H](CCCCNC(=O)CC[C@H](NC(=O)COC(=O)C(C)(C)CCCOc1cc(C)ccc1C)C(=O)O)C(C)=O (H-HGEGTYTNDVTEYLEEEAAKEFIEWLIKG-X4)	Stable	–	0.38 nM	–	Active
CC[C@H](C)[C@H](NC(=O)[C@H](CC(C)C)NC(=O)[C@H](Cc1c[nH]c2ccccc12)NC(=O)[C@H](CCC(=O)O)NC(=O)[C@@H](NC(=O)[C@H](Cc1ccccc1)NC(=O)[C@H](CCC(=O)O)NC(=O)[C@H](CCCCN)NC(=O)[C@H](C)NC(=O)[C@H](C)NC(=O)[C@H](CCC(=O)O)NC(=O)[C@H](CCC(=O)O)NC(=O)[C@H](CCC(=O)O)NC(=O)[C@H](CC(C)C)NC(=O)[C@H](Cc1ccc(O)cc1)NC(=O)[C@H](CCC(=O)O)NC(=O)[C@@H](NC(=O)[C@@H](NC(=O)[C@H](CC(=O)O)NC(=O)[C@H](CC(N)=O)NC(=O)[C@@H](NC(=O)[C@H](Cc1ccc(O)cc1)NC(=O)[C@@H](NC(=O)CNC(=O)[C@H](CCC(=O)O)NC(=O)CNC(=O)[C@@H](N)Cc1cnc[nH]1)[C@@H](C)O)[C@@H](C)O)C(C)C)[C@@H](C)O)[C@@H](C)CC)C(=O)N[C@@H](CCCCN)C(=O)NCC(=O)N[C@@H](CCCCNC(=O)CC[C@H](NC(=O)CCCCCCCCCCNC(=O)COC(=O)C(C)(C)CCCOc1cc(C)ccc1C)C(=O)O)C(C)=O (H-HGEGTYTNDVTEYLEEEAAKEFIEWLIKG-X5)	Stable	–	0.38 nM	–	Active
CC[C@H](C)[C@H](NC(=O)[C@H](CC(C)C)NC(=O)[C@H](Cc1c[nH]c2ccccc12)NC(=O)[C@H](CCC(=O)O)NC(=O)[C@@H](NC(=O)[C@H](Cc1ccccc1)NC(=O)[C@H](CCC(=O)O)NC(=O)[C@H](CCCCN)NC(=O)[C@H](C)NC(=O)[C@H](C)NC(=O)[C@H](CCC(=O)O)NC(=O)[C@H](CCC(=O)O)NC(=O)[C@H](CCC(=O)O)NC(=O)[C@H](CC(C)C)NC(=O)[C@H](Cc1ccc(O)cc1)NC(=O)[C@H](CCC(=O)O)NC(=O)[C@@H](NC(=O)[C@@H](NC(=O)[C@H](CC(=O)O)NC(=O)[C@H](CC(N)=O)NC(=O)[C@@H](NC(=O)[C@H](Cc1ccc(O)cc1)NC(=O)[C@@H](NC(=O)CNC(=O)[C@H](CCC(=O)O)NC(=O)CNC(=O)[C@@H](N)Cc1cnc[nH]1)[C@@H](C)O)[C@@H](C)O)C(C)C)[C@@H](C)O)[C@@H](C)CC)C(=O)N[C@@H](CCCCN)C(=O)NCC(=O)N[C@@H](CCCCNC(=O)CC[C@H](NC(=O)CCCCCNC(=O)COC(=O)C(C)(C)CCCOc1cc(C)ccc1C)C(=O)O)C(=O)O (H-HGEGTYTNDVTEYLEEEAAKEFIEWLIKGK([γGlu-Ahx-Glycoloyl(O-gemfibrozoyl)])-OH)	Stable	–	0.38 nM	–	Active
CC[C@H](C)[C@H](NC(=O)[C@H](CC(C)C)NC(=O)[C@H](Cc1c[nH]c2ccccc12)NC(=O)[C@H](CCC(=O)O)NC(=O)[C@@H](NC(=O)[C@H](Cc1ccccc1)NC(=O)[C@H](CCC(=O)O)NC(=O)[C@H](CCCCNC(=O)CC[C@H](NC(=O)CCCCCNC(=O)COC(=O)C(C)(C)CCCOc1cc(C)ccc1C)C(=O)O)NC(=O)[C@H](C)NC(=O)[C@H](C)NC(=O)[C@H](CCC(=O)O)NC(=O)[C@H](CCC(=O)O)NC(=O)[C@H](CCC(=O)O)NC(=O)[C@H](CC(C)C)NC(=O)[C@H](Cc1ccc(O)cc1)NC(=O)[C@H](CCC(=O)O)NC(=O)[C@@H](NC(=O)[C@@H](NC(=O)[C@H](CC(=O)O)NC(=O)[C@H](CC(N)=O)NC(=O)[C@@H](NC(=O)[C@H](Cc1ccc(O)cc1)NC(=O)[C@@H](NC(=O)CNC(=O)[C@H](CCC(=O)O)NC(=O)CNC(=O)[C@@H](N)Cc1cnc[nH]1)[C@@H](C)O)[C@@H](C)O)C(C)C)C(C)O)[C@@H](C)CC)C(=O)N[C@@H](CCCCN)C(=O)NCC(=O)N[C@@H](CCCCN)C(=O)N1CCC[C@H]1C(=O)N[C@@H](CO)C(=O)N[C@@H](CO)C(=O)NCC(=O)N[C@@H](C)C(=O)N1CCC[C@H]1C(=O)N1CCC[C@H]1C(=O)N1CCC[C@H]1C(=O)N[C@@H](CO)C(=O)O (stereo partly drawn) (H-HGEGTYTNDV[Thr(3ξ)]EYLEEEAAK([γGlu-Ahx-Glycoloyl(O-gemfibrozoyl)])EFIEWLIKGKPSSGAPPPS-OH)	–	1030 min	0.083 nM	6.8	Active
H-HGEGTYTNDVTEYLEEEAAK([γGlu-X1])EFIEWLIKGKPSSGAPPSKKKKKK-OH	–	2030 min	0.31 nM	12.1	inactive

Continued by falling EC50 [3], values first:

Stabilty [1]	half-life at 1000 ng/ml [2]	EC50 [3]	K (Albumin)	Molecule	Activity (Mus musculus)
–	1210 min	0.11 nM	7.3	H-HGEGTYTNDVTEYLEEEAAK([γGlu-Aun-Glycoloyl(O-gemfibrozoyl)])EFIEWLIKGKPSSGAPPSKKKKKK-OH	Active
Stable	1090 min	0.093 nM	–	CC[C@H](C)[C@H](NC(=O)[C@H](CC(C)C)NC(=O)[C@H](Cc1c[nH]c2ccccc12)NC(=O)[C@H](CCC(=O)O)NC(=O)[C@@H](NC(=O)[C@H](Cc1ccccc1)NC(=O)[C@H](CCC(=O)O)NC(=O)[C@H](CCCCNC(=O)CC[C@H](NC(=O)CCCCCCCCCCNC(=O)COC(=O)C(C)(C)CCCOc1cc(C)ccc1C)C(=O)O)NC(=O)[C@H](C)NC(=O)[C@H](C)NC(=O)[C@H](CCC(=O)O)NC(=O)[C@H](CCC(=O)O)NC(=O)[C@H](CCC(=O)O)NC(=O)[C@H](CC(C)C)NC(=O)[C@H](Cc1ccc(O)cc1)NC(=O)[C@H](CCC(=O)O)NC(=O)[C@@H](NC(=O)[C@@H](NC(=O)[C@H](CC(=O)O)NC(=O)[C@H](CC(N)=O)NC(=O)[C@@H](NC(=O)[C@H](Cc1ccc(O)cc1)NC(=O)[C@@H](NC(=O)CNC(=O)[C@H](CCC(=O)O)NC(=O)CNC(=O)[C@@H](N)Cc1cnc[nH]1)[C@@H](C)O)[C@@H](C)O)C(C)C)[C@@H](C)O)[C@@H](C)CC)C(=O)N[C@@H](CCCCN)C(=O)NCC(=O)N[C@@H](CCCCN)C(=O)O (H-HGEGTYTNDVTEYLEEEAAK([γGlu-Aun-Glycoloyl(O-gemfibrozoyl)])EFIEWLIKGK-OH)	Active
Stable	–	0.093 nM	–	CC[C@H](C)[C@H](NC(=O)[C@H](CC(C)C)NC(=O)[C@H](Cc1c[nH]c2ccccc12)NC(=O)[C@H](CCC(=O)O)NC(=O)[C@@H](NC(=O)[C@H](Cc1ccccc1)NC(=O)[C@H](CCC(=O)O)NC(=O)[C@H](CCCCNC(=O)CC[C@H](NC(=O)COC(=O)C(C)(C)CCCOc1cc(C)ccc1C)C(=O)O)NC(=O)[C@H](C)NC(=O)[C@H](C)NC(=O)[C@H](CCC(=O)O)NC(=O)[C@H](CCC(=O)O)NC(=O)[C@H](CCC(=O)O)NC(=O)[C@H](CC(C)C)NC(=O)[C@H](Cc1ccc(O)cc1)NC(=O)[C@@H](NC(=O)[C@@H](NC(=O)[C@@H](NC(=O)[C@H](CC(=O)O)NC(=O)[C@H](CC(N)=O)NC(=O)[C@@H](NC(=O)[C@H](Cc1ccc(O)cc1)NC(=O)[C@@H](NC(=O)CNC(=O)[C@H](CCC(=O)O)NC(=O)CNC(=O)[C@@H](N)Cc1cnc[nH]1)[C@@H](C)O)[C@@H](C)O)C(C)C)[C@@H](C)O)C(C)C)[C@@H](C)CC)C(=O)N[C@@H](CCCCN)C(=O)NCC(=O)N[C@@H](CCCCN)C(=O)O (H-HGEGTYTNDVTVYLEEEAAK([γGlu-Glycoloyl(O-gemfibrozoyl)])EFIEWLIKGK-OH)	Active
Stable	852 min	0.093 nM	–	CC[C@H](C)[C@H](NC(=O)[C@H](CC(C)C)NC(=O)[C@H](Cc1c[nH]c2ccccc12)NC(=O)[C@H](CCC(=O)O)NC(=O)[C@@H](NC(=O)[C@H](Cc1ccccc1)NC(=O)[C@H](CCC(=O)O)NC(=O)[C@H](CCCCNC(=O)CC[C@H](NC(=O)CCCCCNC(=O)COC(=O)C(C)(C)CCCOc1cc(C)ccc1C)C(=O)O)NOC(=O)[C@H](C)NC(=O)[C@H](C)NC(=O)[C@H](CCC(=O)O)NC(=O)[C@H](CCC(=O)O)NC(=O)[C@H](CCC(=O)O)NC(=O)[C@H](CC(C)C)NC(=O)[C@H](Cc1ccc(O)cc1)NC(=O)[C@H](CCC(=O)O)NC(=O)[C@@H](NC(=O)[C@@H](NC(=O)[C@H](CC(=O)O)NC(=O)[C@H](CC(N)=O)NC(=O)[C@@H](NC(=O)[C@H](Cc1ccc(O)cc1)NC(=O)[C@@H](NC(=O)CNC(=O)[C@H](CCC(=O)O)NC(=O)CNC(=O)[C@@H](N)Cc1cnc[nH]1)[C@@H](C)O)[C@@H](C)O)C(C)C)[C@@H](C)O)[C@@H](C)CC)C(=O)N[C@@H](CCCCN)C(=O)NCC(=O)N[C@@H](CCCCN)C(=O)O (I: H-HGEGTYTNDVTEYLEEEAA / II: EFIEWLIKGK-OH; linker I:C-II:N via X3)	Active
–	978 min	0.053 nM	6.4	H-HGEGTYTNDVTEYLEEEAA[ξK]([γGlu-Ahx-Glycoloyl(O-gemfibrozoyl)])EFIEWLIKGKPSSGAPPSKKKKKK-OH	Active
